# Paper PMC8470058 (Antibiotics, 2021)
# Assays:
# [1] = Voriconazole-related adverse events in Child–Pugh class C patients; assay type: in vivo, human
# Description: Forty-three CP-C Asian patients were eligible to participate in the study (Figure 1a). The female-to-male ratio was 4/39. The mean patient age and weight were 49.35 ± 11.65 years (range, 32 to 89 years) and 61.27 ± 12.87 kg (range, 36 to 99 kg). […] The median sampling time of C0 was 5 days (interquartile range (IQR), 3 to 5 days; range, 3 to 11 days).
# Researchers conducted the prospective observational study and collected the hospital information and laboratory information at one tertiary hospital from January 2018 to December 2019. […] The administration regimen is mainly under empirical treatment regimens, and the adjustment is generally based on the results of TDM. This study was approved by the Ethics Committee of The Second XiangYa Hospital of Central South University with an approved NO. yxlb-lays-2018012.
# Data were extracted from medical records and laboratory information systems, including voriconazole-related information (Cmins, timing, amount, route), demographics, laboratory data, and concomitant medications (antimicrobial agents, CYP2C19 inducers, and inhibitors). The first trough concentration, the repeated measured ones and the last one of patients were recorded as C0, C1, Css, respectively. The Child–Pugh class and MELD score were calculated based on previous criteria.
# [2] = both, human, in vivo
# Protocol: Researchers conducted the prospective observational study and collected the hospital information and laboratory information at one tertiary hospital from January 2018 to December 2019. […] This study was approved by the Ethics Committee of The Second […] Hospital of Central South University with an approved NO. yxlb-lays-2018012. Venous blood samples (2 mL) were collected into anticoagulant tubes. […] Monitoring continued every 3 days. […] The two-dimensional separation conditions consisted of FRO C18 (100 mm × 3.0 mm, 5 μm, ANAX) and ASTON HD C18 (150 mm × 4.6 mm, 5 μm, ANAX) with the same flow rate 1.0 mL/min. […] This laboratory participated in the annual national external quality assessment scheme. […] The Child-Pugh class and MELD score were calculated based on previous criteria. The Pearson correlation and nonparametric Spearman correlation were used to study the relationship between clinical or laboratory data and Cmins during the therapy, according to the type of variables. […] The Cmins measured after withdrawal or lack of the corresponding key values of clinical or laboratory data were excluded in pairs in the bivariate correlation analysis or in rows in the multiple linear regression. For the regression analysis, the genotype of CYP2C19 was set as a dummy variable.
# [3] = CP-C patients in ICU; cited from earlier work
# [4] = cited from earlier work
smiles,measurement,setting,value
C[C@@H](c1ncncc1F)[C@](O)(Cn1cncn1)c1ccc(F)cc1F [voriconazole],Patients with adverse events identified as voriconazole related,"[1]; 20 of 43 patients, dizziness, hallucinations, visual disturbance",46.5%
same,Median duration from voriconazole initiation to onset of adverse events,"[1]; range, 1 to 12 days",2 days
same,Decrease of Cmin in male patients compared to the female,[2],1.651 µg/mL
same,Decrease of concentration with a one-unit increase in PTA count,[2],0.035 mg/L
same,Patients with targeted C0 reaching supratherapeutic levels with no adjusted daily dose,[2],25.8%
same,Change of terminal half-life (t1/2),[3],increased about five times
same,Median terminal t1/2,[3],60.7 h
same,Oral bioavailability,[4],91.6%
